Measurements taken from patent publication US8895069B2, “Drug delivery system using hyaluronic acid-peptide conjugate micelle” (Postech Academy-Industry Foundation, priority 2011, dated 2014).
Ends that are not written are not given here.

Assays:
lung inflammation = experiment: Bronchoalveolar lavage (BAL) cellularity in OVA/LPS asthma model; format: in vivo, BALB/c mice; settings: intranasal
Method: As the laboratory mouse, BALB/c mice (female, 6 week old, 5 per each group) were used. Five groups consisted of a normal control group (PBS-PBS: wherein asthma was not induced and the mice were treated with PBS), a negative control group (OVA/LPS10-OVA: wherein asthma was induced by using OVA and LPS, and the mice were treated with PBS only), a hyaluronic acid test group, an anti-Flt1 peptide (GGNQWFI) (SEQ ID NO: 3) test group, and a test group of the hyaluronic acid-peptide conjugate obtained from Preparation Example 3. The dose of the hyaluronic acid-peptide conjugate was changed between 10 […].
First, in order to make a mouse asthma model, each mouse was sensitized by intranasal administration of 75 μg of ovalbumin (OVA) (Calbiochem, La Jolla, Calif.) and 10 μg of lipopolysaccharide (LPS) (Calbiochem, La Jolla, Calif.) on 0 day, the first day, the second day, and the 7th day. Then, OVA (50 ug/head), hyaluronic acid (500 μg/head), anti-Flt1 peptide (GGNQWFI) (SEQ ID NO: 3) (10, 30, 100, 300, 1000 μg/head), and the hyaluronic acid-peptide conjugate with a low peptide content prepared from Preparation Example 3 ([…], based on the peptide content) were intranasally administered, respectively, after 14 days, 15 days, 21 days, 22 days to challenge. […]

[1] = TEM particle size of micelle; format: physicochemical; settings: spherical particle, n=30
Method: (§1) The anti-Flt1 peptide (GGNQWFI) (SEQ ID NO: 3) and the hyaluronic acid-peptide conjugate with a lower peptide content as prepared from Preparation Example 3 were dissolved in 4004, of PBS to have a final peptide concentration of 1.25 mg/mL, respectively. The amount of the anti-Flt1 peptide contained in each solution was measured with a changeable UV transilluminator (DUT-260, Core Bio System, Korea) by using 312 nm of light source. The formation of the hyaluronic acid-peptide micelle in an aqueous solution was confirmed by using a transmission electron microscope (TEM) (Hitachi, Tokyo, Japan). For a TEM analysis, 10 μL of the hyaluronic acid-peptide conjugate solution was dropped onto a 300 mesh copper TEM grid with a carbon film and then was dried. The average particle size was calculated out from the diameters obtained from the images of 30 particles.
For a transmission electron microscope (TEM) (Hitachi, Tokyo, Japan) analysis, 10 μL of the solution of the drug-loaded, hyaluronic acid-peptide conjugate micelle was dropped onto a 300 mesh copper TEM grid with a carbon film and then was dried.

[2] = Appearance / water solubility in aqueous solution; format: physicochemical; settings: PBS, final peptide concentration 1.25 mg/mL
Method: as §1

[3] = tested on: methacholine airway hyper-responsiveness; experiment: Methacholine airway hyper-responsiveness (Penh) in OVA/LPS asthma model; format: in vivo, BALB/c mice; settings: 24 hours after the last allergen challenge, intranasal
Method: The biological activity of the hyaluronic acid-peptide conjugate with a lower peptide concentration (HA-GGNQWFI) in accordance with Preparation Example 3 was measured through the reaction to methacholine. Specifically, as to the airway hyper-responsiveness (AHR), the laboratory rat (in vivo) was made to keep exercising naturally without being put under anesthesia and the enhanced pause (Penh), the number reflecting the airway obstruction as represented by Mathematical Equation 1 was measured by using plethysmography. In this experimentation was used a non-invasive method wherein the measurement was conducted without correcting or putting the laboratory animal under anesthesia. Penh=[(Te/RT−1)×(PEF/PIF)] [Mathematical Equation 1]
In Mathematical Equation 1, Te represents an expiratory time (seconds), RT represents a relaxation time (seconds), PEF represents a peak expiratory flow […], and PIF represents a peak inspiratory flow (ml/s).
As the laboratory mouse, BALB/c mice (female, 6 week old, 5 per each group) were used. […]
The pulmonary function was measured on the 23th day by using the non-invasive whole body plethysmographs for the mouse that was not put under anesthesia. […] The aerosol was prepared by using an ultrasonic nebulizer and the laboratory mouse was exposed to methacholine for 3 minutes and then the Penh was measured for 5 minutes.

[4] = tested on: vascular hyperpermeability due to diabetic retinopathy; experiment: Vascular hyperpermeability due to diabetic retinopathy, genistein-loaded micelle (Experimental Example 14); format: in vivo, Sprague Dawley (SD) male rats; settings: normal = 1, negative control 2.54±0.20; Avastin 10 mg/ml; micelle 3.2 mg/ml peptide; four weeks after streptozotocin
Method: First, each rat was injected intraperitonially with 60 mg/kg of streptozotocin dissolved in 10 mM citrate buffer at pH 4.5 in order for diabetes to be induced. In three days after the injection of streptozotocin, the rat was determined to develop diabetes when its serum concentration of glucose was at least 300 mg/dL. In a week after the injection of streptozotocin, 10 μL of each sample solution was injected into the vitroeus body.

[5] = tested on: corneal neovascularization; experiment: Corneal neovascularization, genistein-loaded micelle (Experimental Example 13); format: in vivo, Albino Sprague Dawley male rats; settings: rat cornea; samples in PBS: Avastin 10 mg/ml, conjugate and micelle 3.2 mg/ml peptide; control group 86%
[6] = tested on: retinal and choroidal neovascularization (CNV); experiment: Laser-induced retinal and choroidal neovascularization (CNV); format: in vivo, Brovin-Norway (BN) male rats; settings: negative control = 100%; intravitreal 10 μL, peptide concentration 10 mg/ml; 2 weeks after laser; conjugate = higher peptide content
Method: Four groups consisted of a negative control group, a hyaluronic acid test group, an anti-Flt1 peptide (GGNQWFI) (SEQ ID NO: 3) test group, a test group of the hyaluronic acid-peptide conjugate with a higher peptide content as prepared from Preparation Example 3 (HA-GGNQWFI(2)). The anti-Flt1 peptide sample and the hyaluronic acid-peptide conjugate sample were made to have an identical peptide concentration of 10 mg/ml. First, the rat was put under anesthesia by being treated with 0.2 mL of a mixed solution (1:1) of 100 mg/ml of ketamine hydrochloride and 20 mg/ml of xylazine hydrochloride. […] The effect of inhibiting retinal and choroidal neovascularization was determined with a fluorescence microscope analysis using dextran-FITC (MW=40,000) after 2 weeks from the laser-induced damage. After being put under anesthesia, the rat was injected with 500 μL of a dextran-FITC solution (25 mg/mL) at its tail vein, and in 5 minutes, the choroid was separated and observed with a fluorescence microscope equipped with a digital camera (Olympus, Tokyo, Japan). The obtained images were analyzed with Image J program (NIH, Bethesda, Md.).

Substance | bronchoalveolar lavage (BAL) cellularity (lung inflammation; 1000 μg/head) | bronchoalveolar lavage (BAL) cellularity, dose dependence (lung inflammation; 10-1000 per head based on peptide content) | average diameter by TEM [1] [nm] | appearance in the aqueous solution (water solubility) [2] | methacholine airway hyper-responsiveness [3] | average intensity of the fluorescence of retina relative to normal group (1) [4] | average ratio of the neovascular area [5] [%] | average intensity of the fluorescence of CNV lesion [6] [%]
HA-GGNQWFI: hyaluronic acid (MW 100 kDa) conjugated with GGNQWFI, 20 peptides per one molecule of HA-TBA (also: conjugated to hyaluronic acid, about 20 peptides per HA) | less than half of the cellularity in the negative control group | sharply decreased and was found to be dose-dependent | 234.5±20.6 | became clear | greatly reduced to a level similar to that of the normal control group | 1.58±0.17 | 30 | 
GGNQWFI [anti-Flt1 peptide, GGNQWFI] |  |  |  | became turbid | inferior to the hyaluronic acid-peptide conjugate |  |  | 61.4±4.4
